From patent US6982348B2, “Aminoethanol derivatives” (Takeda Pharmaceutical Company Limited, priority 2001, dated 2006) come the findings set out here.

As a reminder, the melting point is the temperature, or range, at which the solid turns liquid.

`COc1ccc(C(=O)N[C@H](Cc2ccc(C(F)(F)F)cc2)[C@@H](O)c2ccc(F)cc2)cc1` (racemic) [Example 60, N-((1RS,2SR)-2-(4-fluorophenyl)-2-hydroxy-1-((4-(trifluoromethyl)phenyl)methyl)ethyl)-4-(methyloxy)benzamide] registered a melting point of 192 to 193 °C. The molecule `O=C(N[C@H](Cc1ccc(C(F)(F)F)cc1)[C@@H](O)c1ccc(F)cc1)c1cccc2c1-c1ccccc1C2=O` (racemic) [Example 61, N-((1RS,2SR)-2-(4-fluorophenyl)-2-hydroxy-1-((4-(trifluoromethyl)phenyl)methyl)ethyl)-9-oxo-9H-fluorene-4-carboxamide] registered a melting point of 231 to 232 °C. For the molecule `O=C(N[C@H](Cc1ccc(C(F)(F)F)cc1)[C@@H](O)c1ccc(F)cc1)c1ccc2ccccc2c1` (racemic) [Example 63, N-((1RS,2SR)-2-(4-fluorophenyl)-2-hydroxy-1-((4-(trifluoromethyl)phenyl)methyl)ethyl)-2-naphthalenecarboxamide], the melting point is 174 to 175 °C. Consider `COCc1ccc(C(=O)N[C@H](Cc2ccc(C(F)(F)F)cc2)[C@@H](O)c2ccc(F)cc2)c2ccccc12` (racemic) [Example 65, N-((1RS,2SR)-2-(4-fluorophenyl)-2-hydroxy-1-((4-(trifluoromethyl)phenyl)methyl)ethyl)-4-((methyloxy)methyl)-1-naphthalenecarboxamide], for which the melting point was 170 to 171 °C. `O=C(N[C@H](Cc1ccc(C(F)(F)F)cc1)[C@@H](O)c1ccc(F)cc1)c1cccc2cc3ccccc3cc12` (racemic) [Example 66, N-((1RS,2SR)-2-(4-fluorophenyl)-2-hydroxy-1-((4-(trifluoromethyl)phenyl)methyl)ethyl)-1-anthracenecarboxamide] yielded a melting point of 227 to 228 °C. In turn, `O=C(N[C@H](Cc1ccc(C(F)(F)F)cc1)[C@@H](O)c1ccc(F)cc1)c1ccccc1` (racemic) [Example 68, N-[(1RS,2SR)-2-(4-fluorophenyl)-2-hydroxy-1-[4-(trifluoromethyl)benzyl]ethyl]benzamide] yielded a melting point of 193 to 194 °C.

Take `O=C(Cc1ccccc1)N[C@H](Cc1ccc(C(F)(F)F)cc1)[C@@H](O)c1ccc(F)cc1` (racemic) [Example 69, N-((1RS,2SR)-2-(4-fluorophenyl)-2-hydroxy-1-((4-(trifluoromethyl)phenyl)methyl)ethyl)-2-phenylacetamide]: the melting point is 173 to 174 °C. In turn, `O=C(N[C@H](Cc1ccc(C(F)(F)F)cc1)[C@@H](O)c1ccc(F)cc1)C(F)(F)F` (racemic) [Example 70, N-[(1RS,2SR)-2-(4-fluorophenyl)-2-hydroxy-1-[4-(trifluoromethyl)benzyl]ethyl]-2,2,2-trifluoroacetamide] came in with a melting point of 162 to 163 °C.

Consider `O=C(N[C@H](Cc1ccc(C(F)(F)F)cc1)[C@@H](O)c1ccc(F)cc1)c1ccc2c(c1)OCO2` (racemic) [Example 72, N-((1RS,2SR)-2-(4-fluorophenyl)-2-hydroxy-1-((4-(trifluoromethyl)phenyl)methyl)ethyl)-1,3-benzodioxole-5-carboxamide], for which the melting point fell in the range of 180 to 181 °C. The result for `Cc1oc(C(C)C)c(C(=O)N[C@H](Cc2ccc(C(F)(F)F)cc2)[C@@H](O)c2ccc(F)cc2)c1-c1ccc(F)cc1` (racemic) [Example 73, 4-(4-fluorophenyl)-N-[(1RS,2SR)-2-(4-fluorophenyl)-2-hydroxy-1-[4-(trifluoromethyl)benzyl]ethyl]-5-methyl-2-(1-methylethyl)furan-3-carboxamide] reads 134 to 136 °C. `O=C(N[C@H](Cc1ccc(C(F)(F)F)cc1)[C@@H](O)c1ccc(F)cc1)c1cccc(-c2ccccc2)c1` (racemic) [Example 74, N-((1RS,2SR)-2-(4-fluorophenyl)-2-hydroxy-1-((4-(trifluoromethyl)phenyl)methyl)ethyl)[1,1′-biphenyl]-3-carboxamide] gave a melting point of 165 to 166 °C.
